Entries after “also recorded” stand apart in the source; their conditions may differ.

The values that follow come from article PMC9380819 (ACS Omega, 2022).

Series [1] concerns SARS-CoV-2. The series is classed as cell-based.
The test system of series [2] is SARS-CoV-2. As to conditions: 10 μM, after 48 h; cited from earlier work.
Series [3] concerns spike protein–ACE2 interaction. As to conditions: not tested against virally infected cells; cited from earlier work.
Series [4] can be described thus: in vitro. Conditions: human.
The target in series [5] is SARS-CoV-2 spike RBD: hACE2 (Severe acute respiratory syndrome coronavirus 2, UniProt P0DTC2). The series is classed as biochemical.
Series [6] relates to SARS-CoV-2 (isolate USA WA1/2020). As to the kind of experiment: microbe, parasite or virus in culture. The series is classed as cell-based. Conditions: Severe acute respiratory syndrome coronavirus 2, Calu-3.
For series [7], the target named is SARS-CoV-2 spike RBD (331–528 amino acids) (Severe acute respiratory syndrome coronavirus 2, UniProt P0DTC2). Put plainly: biochemical. The series is classed as binding.
The test system of series [8] is SARS-CoV-2. Conditions: cited from earlier work.
Series [9] deals with SARS-CoV-2. Conditions: cited from earlier work. This is another data set of the same source.
Series [10] deals with SARS-CoV-2. Conditions: Vero cells; cited from earlier work.
Series [11] relates to ACE2. As to conditions: read-out: IC50 exopeptidase activity; cited from earlier work.

Regarding `CC(C)NCC(O)COc1ccc(CC(N)=O)cc1` (stereo not drawn) [atenolol], the “SARS-CoV-2 adsorption to Vero E6 cells” value in series [1] is “statistically decreased SARS-CoV-2 adsorption”. Besides, in series [2], the “inhibition of SARS-CoV-2-induced cytotoxicity of Caco-2 cells” value is on record as 25.84%.

The IC50 is the concentration that gives 50% inhibition. For `O=c1c(O)c(-c2ccc(O)c(O)c2)oc2cc(O)cc(O)c12` [Quercetin], the IC50 in [3] was 7 µM.

One may read the EC50 as the concentration at which the effect is half-maximal. The Kd is the concentration at which binding is half-saturated. The low end stands for higher affinity, the high end for lower affinity. For `COc1ccccc1OCCNCC(O)COc1cccc2[nH]c3ccccc3c12` (stereo not drawn) [carvedilol], the “SARS-CoV-2 adsorption to Vero E6 cells” value in [1] is listed as “statistically decreased SARS-CoV-2 adsorption; also recorded: highest reduction on SARS-CoV-2 adsorption”. The CC50 in [4] was found to be 18.1 µM. The “disruption of the interaction between the RBD and ACE2” value (“disruption” below) in series [5] was “none of the compounds tested were able to disrupt the interaction”. The compound also yielded an EC50 in series [6] of 7.57 µM. In addition, the “inhibition of SARS-CoV-2-induced cytotoxicity of Caco-2 cells” value in series [2] is reported as “did not show activity”. For the same compound, the Kd in series [7] came out at 0.364 ± 0.022 µM.

On to `COc1ccc2nc3cc(Cl)ccc3c(Nc3cc(CN4CCCC4)c(O)c(CN4CCCC4)c3)c2n1` [pyronaridine], for which the “activity in A549-ACE2 cells” value in series [8] is recorded as “sub-micromolar”. The “efficacy in a mouse model infected with SARS-CoV-2” value in series [9] is reported as “demonstrated efficacy”.

Consider `CCN(CC)CCCC(C)Nc1c2ccc(Cl)cc2nc2ccc(OC)cc12` (stereo not drawn) [quinacrine], for which the “activity in A549-ACE2 cells” value in series [8] was “sub-micromolar”.

In the case of `CC(C)(C)NCC(O)COc1cccc2c1CCC(=O)N2` (stereo not drawn) [carteolol], in [5], the “disruption” value is “none of the compounds tested were able to disrupt the interaction”. The Kd in series [7] came out at 0.459 ± 0.111 µM.

`CCCCC/C=C\C/C=C\CCCCCCCC(=O)O` [linoleic acid]: in series [5], the “disruption” value is reported as “not able to disrupt the interaction”.

Consider `CCN(CC)CCOc1ccc2c(c1)C(=O)c1cc(OCCN(CC)CC)ccc1-2` [tilorone], for which, in series [8], the “activity in A549-ACE2 cells” value is recorded as “sub-micromolar”.

On to `Oc1c(I)cc(Cl)c2cccnc12` [cliquinol], for which the EC50 in series [10] was 12.6 µM. Besides, the IC50 in series [11] is 5.36 µM.

As for `CC(C)NCC(O)COc1cccc2[nH]ccc12` (stereo not drawn) [pindolol, Pindolol], the “disruption” value in [5] was “none of the compounds tested were able to disrupt the interaction”. Besides, the dissociation constant (Kd) in series [7] is 0.57 ± 0.144 µM.

Turning to `CCC(CC)COC(=O)[C@H](C)N[P@](=O)(OC[C@H]1O[C@@](C#N)(c2ccc3c(N)ncnn23)[C@H](O)[C@@H]1O)Oc1ccccc1` [Remdesivir], the EC50 in [6] is 0.08 µM.

For `CC(C)NCC(O)COc1ccc(COCCOC(C)C)cc1` (racemic) [bisoprolol, (±)-Bisoprolol hemifumarate], in series [1], the “SARS-CoV-2 adsorption to Vero E6 cells” value is recorded as “statistically decreased SARS-CoV-2 adsorption”. The “disruption” value in series [5] is recorded as “none of the compounds tested were able to disrupt the interaction”. Also, the “binding to the RBD spike in MST” value in series [7] is “did not bind”.
